# Measured values from ChEMBL document CHEMBL4613209, “Quinolone hybrids and their anti-cancer activities: An overview” (Eur J Med Chem, 2019).
# pIC50: −log10 of the molar value.
# Tested on: SW480
# Test: Cytotoxicity against human SW480 cells assessed as reduction in cell viability by MTT assay
# Type: functional, cell-based
# Conditions: not given
row,SMILES,pIC50
1,CCn1cc(C(=O)O)c(=O)c2cc(F)c(N3CCN(C/C(=N/O)c4ccc(Cl)s4)CC3)cc21,≥ 4.70
2,O=C(CN1CCN(c2cc3c(cc2F)c(=O)c(C(=O)O)cn3C2CC2)CC1)c1cccs1,3.88 to 5.70
3,O=C(O)c1cn(C2CC2)c2cc(N3CCN(C/C(=N/OCc4ccccc4)c4ccc(Cl)s4)CC3)c(F)cc2c1=O,≥ 4.70
4,CCn1cc(C(=O)O)c(=O)c2cc(F)c(N3CCN(C/C(=N/O)c4ccc(Cl)s4)CC3)nc21,≥ 4.70
5,CCn1cc(C(=O)O)c(=O)c2cc(F)c(N3CCN(C/C(=N/OC)c4cccs4)CC3)nc21,3.88 to 5.70
6,CCn1cc(C(=O)O)c(=O)c2cc(F)c(N3CCN(CC(=O)c4ccc(Cl)s4)CC3)nc21,≤ 4.00
7,CCn1cc(C(=O)O)c(=O)c2cc(F)c(N3CCN(CC(=O)c4ccc(Cl)s4)CC3)cc21,≤ 4.00
8,CCn1cc(C(=O)O)c(=O)c2cc(F)c(N3CCN(C/C(=N/O)c4cccs4)CC3)nc21,3.88 to 5.70
9,CCn1cc(C(=O)O)c(=O)c2cc(F)c(N3CCN(C/C(=N/OC)c4cccs4)CC3)cc21,3.88 to 5.70
10,CCn1cc(C(=O)O)c(=O)c2cc(F)c(N3CCN(C/C(=N/OC)c4ccc(Cl)s4)CC3)nc21,≥ 4.70
11,CCn1cc(C(=O)O)c(=O)c2cc(F)c(N3CCN(C/C(=N/OCc4ccccc4)c4cccs4)CC3)nc21,3.88 to 5.70
12,CCn1cc(C(=O)O)c(=O)c2cc(F)c(N3CCN(C/C(=N/OCc4ccccc4)c4cccs4)CC3)cc21,3.88 to 5.70
13,CCn1cc(C(=O)O)c(=O)c2cc(F)c(N3CCN(CC(=O)c4cccs4)CC3)nc21,3.88 to 5.70

# Tested on: EJ
# Test: Cytotoxicity against human EJ cells assessed as reduction in cell viability by MTT assay
# Type: functional, cell-based
# Conditions: not given
row,SMILES,pIC50
1,CCn1cc(C(=O)O)c(=O)c2cc(F)c(N3CCN(C/C(=N/O)c4ccc(Cl)s4)CC3)cc21,≥ 4.70
2,O=C(CN1CCN(c2cc3c(cc2F)c(=O)c(C(=O)O)cn3C2CC2)CC1)c1cccs1,3.88 to 5.70
3,O=C(O)c1cn(C2CC2)c2cc(N3CCN(C/C(=N/OCc4ccccc4)c4ccc(Cl)s4)CC3)c(F)cc2c1=O,≥ 4.70
4,CCn1cc(C(=O)O)c(=O)c2cc(F)c(N3CCN(C/C(=N/O)c4ccc(Cl)s4)CC3)nc21,≥ 4.70
5,CCn1cc(C(=O)O)c(=O)c2cc(F)c(N3CCN(C/C(=N/OC)c4cccs4)CC3)nc21,3.88 to 5.70
6,CCn1cc(C(=O)O)c(=O)c2cc(F)c(N3CCN(CC(=O)c4ccc(Cl)s4)CC3)nc21,≤ 4.00
7,CCn1cc(C(=O)O)c(=O)c2cc(F)c(N3CCN(CC(=O)c4ccc(Cl)s4)CC3)cc21,≤ 4.00
8,CCn1cc(C(=O)O)c(=O)c2cc(F)c(N3CCN(C/C(=N/O)c4cccs4)CC3)nc21,3.88 to 5.70
9,CCn1cc(C(=O)O)c(=O)c2cc(F)c(N3CCN(C/C(=N/OC)c4cccs4)CC3)cc21,3.88 to 5.70
10,CCn1cc(C(=O)O)c(=O)c2cc(F)c(N3CCN(C/C(=N/OC)c4ccc(Cl)s4)CC3)nc21,≥ 4.70
11,CCn1cc(C(=O)O)c(=O)c2cc(F)c(N3CCN(C/C(=N/OCc4ccccc4)c4cccs4)CC3)nc21,3.88 to 5.70
12,CCn1cc(C(=O)O)c(=O)c2cc(F)c(N3CCN(C/C(=N/OCc4ccccc4)c4cccs4)CC3)cc21,3.88 to 5.70
13,CCn1cc(C(=O)O)c(=O)c2cc(F)c(N3CCN(CC(=O)c4cccs4)CC3)nc21,3.88 to 5.70

# Tested on: HL-60
# Test: Cytotoxicity against human HL60 cells assessed as reduction in cell viability
# Type: functional, cell-based
# Conditions: not given
row,SMILES,pIC50
1,CCN1CCN(c2cc3c(cc2F)c(=O)c(-c2nnc4sc(-c5cn(CC)c6cc(N7CCN(C)CC7)c(F)cc6c5=O)nn24)cn3C2CC2)CC1,5.28 to 6.92
2,O=C(N/N=C/c1ccc(F)cc1)c1cn(C2CC2)c2cc(N/N=C/c3ccc(F)cc3)c(F)cc2c1=O,4.63 to 5.82
3,CCN1CCN(c2cc3c(cc2F)c(=O)c(-c2nn4c(-c5cn(C6CC6)c6cc(N7CCNCC7)c(F)cc6c5=O)nnc4s2)cn3C2CC2)CC1,5.28 to 6.92
4,CCN1CCN(c2cc3c(cc2F)c(=O)c(-c2nnc4sc(-c5cn(C6CC6)c6cc(N7CCNCC7)c(F)cc6c5=O)nn24)cn3C2CC2)CC1,5.28 to 6.92
5,CCN1CCN(c2cc3c(cc2F)c(=O)c(-c2nnc4sc(-c5cn(CC)c6cc(N7CCNCC7)c(F)cc6c5=O)nn24)cn3C2CC2)CC1,5.28 to 6.92
6,O=C(N/N=C/c1ccccc1)c1cn(C2CC2)c2cc(N/N=C/c3ccccc3)c(F)cc2c1=O,4.63 to 5.82

# Tested on: MCF7
# Test: Cytotoxicity against human MCF7 cells assessed as reduction in cell viability by MTT assay
# Type: functional, cell-based
# Conditions: not given
row,SMILES,pIC50
1,CCn1cc(C(=O)O)c(=O)c2cc(F)c(N3CCN(C/C(=N/O)c4ccc(Cl)s4)CC3)cc21,≥ 4.70
2,O=C(CN1CCN(c2cc3c(cc2F)c(=O)c(C(=O)O)cn3C2CC2)CC1)c1cccs1,3.88 to 5.70
3,O=C(O)c1cn(C2CC2)c2cc(N3CCN(C/C(=N/OCc4ccccc4)c4ccc(Cl)s4)CC3)c(F)cc2c1=O,≥ 4.70
4,CCn1cc(C(=O)O)c(=O)c2cc(F)c(N3CCN(C/C(=N/O)c4ccc(Cl)s4)CC3)nc21,≥ 4.70
5,CCn1cc(C(=O)O)c(=O)c2cc(F)c(N3CCN(C/C(=N/OC)c4cccs4)CC3)nc21,3.88 to 5.70
6,CCn1cc(C(=O)O)c(=O)c2cc(F)c(N3CCN(CC(=O)c4ccc(Cl)s4)CC3)nc21,≤ 4.00
7,CCn1cc(C(=O)O)c(=O)c2cc(F)c(N3CCN(CC(=O)c4ccc(Cl)s4)CC3)cc21,≤ 4.00
8,CCn1cc(C(=O)O)c(=O)c2cc(F)c(N3CCN(C/C(=N/O)c4cccs4)CC3)nc21,3.88 to 5.70
9,CCn1cc(C(=O)O)c(=O)c2cc(F)c(N3CCN(C/C(=N/OC)c4cccs4)CC3)cc21,3.88 to 5.70
10,CCn1cc(C(=O)O)c(=O)c2cc(F)c(N3CCN(C/C(=N/OC)c4ccc(Cl)s4)CC3)nc21,≥ 4.70
11,CCn1cc(C(=O)O)c(=O)c2cc(F)c(N3CCN(C/C(=N/OCc4ccccc4)c4cccs4)CC3)nc21,3.88 to 5.70
12,CCn1cc(C(=O)O)c(=O)c2cc(F)c(N3CCN(C/C(=N/OCc4ccccc4)c4cccs4)CC3)cc21,3.88 to 5.70
13,CCn1cc(C(=O)O)c(=O)c2cc(F)c(N3CCN(CC(=O)c4cccs4)CC3)nc21,3.88 to 5.70

# Tested on: L1210
# Test: Cytotoxicity against mouse L1210 cells assessed as reduction in cell viability
# Type: functional, cell-based
# Conditions: not given
row,SMILES,pIC50
1,CCN1CCN(c2cc3c(cc2F)c(=O)c(-c2nnc4sc(-c5cn(CC)c6cc(N7CCN(C)CC7)c(F)cc6c5=O)nn24)cn3C2CC2)CC1,5.28 to 6.92
2,O=C(N/N=C/c1ccc(F)cc1)c1cn(C2CC2)c2cc(N/N=C/c3ccc(F)cc3)c(F)cc2c1=O,4.63 to 5.82
3,CCN1CCN(c2cc3c(cc2F)c(=O)c(-c2nn4c(-c5cn(C6CC6)c6cc(N7CCNCC7)c(F)cc6c5=O)nnc4s2)cn3C2CC2)CC1,5.28 to 6.92
4,CCN1CCN(c2cc3c(cc2F)c(=O)c(-c2nnc4sc(-c5cn(C6CC6)c6cc(N7CCNCC7)c(F)cc6c5=O)nn24)cn3C2CC2)CC1,5.28 to 6.92
5,CCN1CCN(c2cc3c(cc2F)c(=O)c(-c2nnc4sc(-c5cn(CC)c6cc(N7CCNCC7)c(F)cc6c5=O)nn24)cn3C2CC2)CC1,5.28 to 6.92
6,O=C(N/N=C/c1ccccc1)c1cn(C2CC2)c2cc(N/N=C/c3ccccc3)c(F)cc2c1=O,4.63 to 5.82

# Tested on: CHO
# Test: Cytotoxicity against CHO cells assessed as reduction in cell viability
# Type: functional, cell-based
# Conditions: Cricetulus griseus
row,SMILES,pIC50
1,CCN1CCN(c2cc3c(cc2F)c(=O)c(-c2nnc4sc(-c5cn(CC)c6cc(N7CCN(C)CC7)c(F)cc6c5=O)nn24)cn3C2CC2)CC1,5.28 to 6.92
2,O=C(N/N=C/c1ccc(F)cc1)c1cn(C2CC2)c2cc(N/N=C/c3ccc(F)cc3)c(F)cc2c1=O,4.63 to 5.82
3,CCN1CCN(c2cc3c(cc2F)c(=O)c(-c2nn4c(-c5cn(C6CC6)c6cc(N7CCNCC7)c(F)cc6c5=O)nnc4s2)cn3C2CC2)CC1,5.28 to 6.92
4,CCN1CCN(c2cc3c(cc2F)c(=O)c(-c2nnc4sc(-c5cn(C6CC6)c6cc(N7CCNCC7)c(F)cc6c5=O)nn24)cn3C2CC2)CC1,5.28 to 6.92
5,CCN1CCN(c2cc3c(cc2F)c(=O)c(-c2nnc4sc(-c5cn(CC)c6cc(N7CCNCC7)c(F)cc6c5=O)nn24)cn3C2CC2)CC1,5.28 to 6.92
6,O=C(N/N=C/c1ccccc1)c1cn(C2CC2)c2cc(N/N=C/c3ccccc3)c(F)cc2c1=O,4.63 to 5.82

# Tested on: SK-MEL3
# Test: Cytotoxicity against human SK-MEL-3 cells assessed as reduction in cell viability by MTT assay
# Type: functional, cell-based
# Conditions: not given
row,SMILES,pIC50
1,CCn1cc(C(=O)O)c(=O)c2cc(F)c(N3CCN(C/C(=N/O)c4ccc(Cl)s4)CC3)cc21,≥ 4.70
2,O=C(CN1CCN(c2cc3c(cc2F)c(=O)c(C(=O)O)cn3C2CC2)CC1)c1cccs1,3.88 to 5.70
3,O=C(O)c1cn(C2CC2)c2cc(N3CCN(C/C(=N/OCc4ccccc4)c4ccc(Cl)s4)CC3)c(F)cc2c1=O,≥ 4.70
4,CCn1cc(C(=O)O)c(=O)c2cc(F)c(N3CCN(C/C(=N/O)c4ccc(Cl)s4)CC3)nc21,≥ 4.70
5,CCn1cc(C(=O)O)c(=O)c2cc(F)c(N3CCN(C/C(=N/OC)c4cccs4)CC3)nc21,3.88 to 5.70
6,CCn1cc(C(=O)O)c(=O)c2cc(F)c(N3CCN(CC(=O)c4ccc(Cl)s4)CC3)nc21,≤ 4.00
7,CCn1cc(C(=O)O)c(=O)c2cc(F)c(N3CCN(CC(=O)c4ccc(Cl)s4)CC3)cc21,≤ 4.00
8,CCn1cc(C(=O)O)c(=O)c2cc(F)c(N3CCN(C/C(=N/O)c4cccs4)CC3)nc21,3.88 to 5.70
9,CCn1cc(C(=O)O)c(=O)c2cc(F)c(N3CCN(C/C(=N/OC)c4cccs4)CC3)cc21,3.88 to 5.70
10,CCn1cc(C(=O)O)c(=O)c2cc(F)c(N3CCN(C/C(=N/OC)c4ccc(Cl)s4)CC3)nc21,≥ 4.70
11,CCn1cc(C(=O)O)c(=O)c2cc(F)c(N3CCN(C/C(=N/OCc4ccccc4)c4cccs4)CC3)nc21,3.88 to 5.70
12,CCn1cc(C(=O)O)c(=O)c2cc(F)c(N3CCN(C/C(=N/OCc4ccccc4)c4cccs4)CC3)cc21,3.88 to 5.70
13,CCn1cc(C(=O)O)c(=O)c2cc(F)c(N3CCN(CC(=O)c4cccs4)CC3)nc21,3.88 to 5.70

# Tested on: A-431
# Test: Cytotoxicity against human A431 cells assessed as reduction in cell viability by MTT assay
# Type: functional, cell-based
# Conditions: not given
row,SMILES,pIC50
1,CCn1cc(C(=O)O)c(=O)c2cc(F)c(N3CCN(C/C(=N/O)c4ccc(Cl)s4)CC3)cc21,≥ 4.70
2,O=C(CN1CCN(c2cc3c(cc2F)c(=O)c(C(=O)O)cn3C2CC2)CC1)c1cccs1,3.88 to 5.70
3,O=C(O)c1cn(C2CC2)c2cc(N3CCN(C/C(=N/OCc4ccccc4)c4ccc(Cl)s4)CC3)c(F)cc2c1=O,≥ 4.70
4,CCn1cc(C(=O)O)c(=O)c2cc(F)c(N3CCN(C/C(=N/O)c4ccc(Cl)s4)CC3)nc21,≥ 4.70
5,CCn1cc(C(=O)O)c(=O)c2cc(F)c(N3CCN(C/C(=N/OC)c4cccs4)CC3)nc21,3.88 to 5.70
6,CCn1cc(C(=O)O)c(=O)c2cc(F)c(N3CCN(CC(=O)c4ccc(Cl)s4)CC3)nc21,≤ 4.00
7,CCn1cc(C(=O)O)c(=O)c2cc(F)c(N3CCN(CC(=O)c4ccc(Cl)s4)CC3)cc21,≤ 4.00
8,CCn1cc(C(=O)O)c(=O)c2cc(F)c(N3CCN(C/C(=N/O)c4cccs4)CC3)nc21,3.88 to 5.70
9,CCn1cc(C(=O)O)c(=O)c2cc(F)c(N3CCN(C/C(=N/OC)c4cccs4)CC3)cc21,3.88 to 5.70
10,CCn1cc(C(=O)O)c(=O)c2cc(F)c(N3CCN(C/C(=N/OC)c4ccc(Cl)s4)CC3)nc21,≥ 4.70
11,CCn1cc(C(=O)O)c(=O)c2cc(F)c(N3CCN(C/C(=N/OCc4ccccc4)c4cccs4)CC3)nc21,3.88 to 5.70
12,CCn1cc(C(=O)O)c(=O)c2cc(F)c(N3CCN(C/C(=N/OCc4ccccc4)c4cccs4)CC3)cc21,3.88 to 5.70
13,CCn1cc(C(=O)O)c(=O)c2cc(F)c(N3CCN(CC(=O)c4cccs4)CC3)nc21,3.88 to 5.70
